From PubChem BioAssay (NCI)
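Step 1: Grow cells in 96-well plates. Step 2: Expose to compound for 48 hours at 5 concentrations. Step 3: Interpolate endpoints linearly; if unreached, use highest concentration. The concentration for 50% growth inhibition is given as GI50. Definition used: TGI = concentration required for complete inhibition of growth.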

What was measured:
Assay in all cases: inhibition of tumour cell growth, NCI panel, 48 h
[1] = system: HCT-116 colon
[2] = system: M14 melanoma
[3] = system: MCF7 breast
[4] = system: T-47D breast
[5] = system: K-562 leukemia
[6] = system: MDA-MB-435
[7] = system: U251 CNS
[8] = system: HCC-2998 colon

Compound | GI50 [1] | TGI [1] | GI50 [2] | TGI [2] | GI50 [3] | TGI [3] | GI50 [4] | TGI [4] | GI50 [5] | TGI [5] | GI50 [6] | TGI [6] | GI50 [7] | TGI [7] | GI50 [8] | TGI [8]
COc1ccc2c(c1)c(=O)oc1cc(OC/C(C)=N\O)ccc12 | > 100 µM | > 100 µM | > 100 µM | > 100 µM | > 100 µM | > 100 µM | > 100 µM | > 100 µM | > 100 µM | > 100 µM | > 100 µM | > 100 µM | 33.4 µM | > 100 µM | > 100 µM | > 100 µM
COc1cc2ccc(/C=C\[N+](=O)[O-])cc2cc1OC | – | 5.16 µM | – | 7.41 µM | – | 7.06 µM | – | 12.5 µM | – | > 24.6 µM | – | 7.63 µM | – | 9.87 µM | – | 13.6 µM
CC(=O)OCC1OC(n2cnc(C(N)=S)c2N)C(OC(C)=O)C1OC(C)=O (centres undefined) | – | > 100 µM | – | > 100 µM | – | > 100 µM | – | > 100 µM | – | – | – | > 100 µM | – | > 100 µM | – | > 100 µM
O=[N+]([O-])O.[Cu+2].[NH-]CC[NH-].[NH-]CC[NH-] | > 10 µM | > 10 µM | > 10 µM | > 10 µM | > 10 µM | > 10 µM | > 10 µM | > 10 µM | > 10 µM | > 10 µM | > 10 µM | > 10 µM | > 10 µM | > 10 µM | > 10 µM | > 10 µM
COc1cc([C@@H]2OC[C@@H]3C(c4cc(OC)c5c(c4)OCO5)OC[C@@H]32)cc(OC)c1OC (some centres undefined) | – | > 100 µM | – | > 100 µM | – | > 100 µM | – | > 100 µM | – | > 100 µM | – | > 100 µM | – | > 100 µM | – | > 100 µM
CCC1C2Cc3ccc(O)cc3C1(CC)CCN2C (centres undefined) | – | > 100 µM | – | > 100 µM | – | > 100 µM | – | > 100 µM | – | > 100 µM | – | > 100 µM | – | > 100 µM | – | –
COc1ccc(-c2cc(=O)[nH]c3c(OC)c4ccccc4c(OC)c23)cc1 | 0.38 µM | > 100 µM | 0.388 µM | – | 0.357 µM | > 100 µM | 0.356 µM | > 100 µM | 0.346 µM | > 100 µM | – | – | 0.419 µM | > 100 µM | 1.28 µM | > 23.1 µM
COc1ccc(C(=O)c2cc(OC)c(OC)c(OC)c2)cc1OC(=O)CCl | 0.0205 µM | > 100 µM | < 0.0142 µM | – | 0.0249 µM | > 100 µM | 3.03 µM | 97.3 µM | < 0.0123 µM | > 100 µM | < 0.01 µM | – | 0.0422 µM | > 100 µM | 0.0393 µM | > 100 µM
O=C1Nc2ccccc2/C1=C/C(=O)c1coc2c1C(=O)c1ccccc1C2=O | > 100 µM | > 100 µM | > 100 µM | > 100 µM | 74.7 µM | > 100 µM | 56.9 µM | > 100 µM | > 100 µM | > 100 µM | > 100 µM | > 100 µM | > 100 µM | > 100 µM | > 100 µM | > 100 µM
COc1cc([N+](=O)[O-])c(OC)cc1-c1nc2sc(Cl)cn2c1/C(N)=N/C(=N)N | 2.41 µM | 6.41 µM | 3.51 µM | 13 µM | – | – | 2.31 µM | 5.63 µM | 2.01 µM | > 100 µM | 1.9 µM | 4.64 µM | 3.41 µM | > 100 µM | 1.99 µM | 4.15 µM
CC(C)(C)c1ccc(Oc2nccc(-c3c(-c4ccc(F)cc4)ncn3C3CCNCC3)n2)cc1 | 3.58 µM | 7.07 µM | 4.5 µM | 8.46 µM | 3.86 µM | 7.77 µM | 4.46 µM | 8.56 µM | 0.849 µM | 4.7 µM | 3.53 µM | 7.04 µM | 3.23 µM | 6.49 µM | 1.38 µM | 4.98 µM
COc1cnc2c(c1)C(=O)c1c-2n(CCCn2ccnc2)c(=O)c2cc(F)ccc12 | < 0.01 µM | 0.141 µM | < 0.01 µM | 0.635 µM | – | – | – | – | – | – | 0.121 µM | 0.832 µM | < 0.01 µM | 0.179 µM | 0.361 µM | 79.5 µM
Cc1nn2c(/C=C3\C(=O)Nc4ccc(Cl)cc43)c(C)nc2s1 | 30.2 µM | > 100 µM | 23.2 µM | > 100 µM | 15.6 µM | > 100 µM | 42.8 µM | > 100 µM | 5.43 µM | > 100 µM | 3.4 µM | 26.7 µM | 46.5 µM | > 100 µM | 26.2 µM | > 100 µM
COc1ccc(C(=O)OC2C(OC3C(O)COC(O[C@H]4C[C@H]5[C@@H]6CC=C7C[C@@H](O)CC[C@]7(C)[C@H]6CC[C@]5(C)[C@H]4[C@H](C)C(=O)CCC(C)C)C3OC(N)=O)OCC(O)C2O)cc1 (some centres undefined) | 0.0198 µM | 3.56 µM | 0.036 µM | 0.183 µM | 0.00855 µM | 0.635 µM | 0.0501 µM | 2.02 µM | 0.00924 µM | 0.3 µM | 0.0346 µM | 0.547 µM | < 0.003 µM | 3.32 µM | 1.21 µM | 6.16 µM
COc1ccc(-c2nc(-c3nc4ccc(OC)cc4[nH]3)c3ccccn23)cc1 | 3.63 µM | 13.1 µM | 3.74 µM | 16 µM | 3.4 µM | > 100 µM | 2.7 µM | 9.75 µM | 3.6 µM | > 100 µM | 3.14 µM | > 100 µM | 4.42 µM | > 100 µM | 3.96 µM | 46.4 µM
COc1cc(CSc2nc3ccc(C)cc3c(=O)n2-c2ccccc2)cc(OC)c1OC | 1.03 µM | > 100 µM | 1.4 µM | > 100 µM | 0.548 µM | > 100 µM | 1.56 µM | > 100 µM | 0.534 µM | > 100 µM | 0.269 µM | 0.896 µM | 3.77 µM | > 100 µM | 5.49 µM | > 100 µM
C=C1C(=O)O[C@H]2[C@H]1CC/C(COC(=O)NCc1ccc(Cn3c(=O)sn(CCCl)c3=O)cc1)=C\CC[C@@]1(C)O[C@@H]21 | 1.62 µM | 3.08 µM | 1.82 µM | 3.65 µM | 1.91 µM | 4.4 µM | 1.97 µM | 5.16 µM | 2.07 µM | 5.63 µM | 1.74 µM | 3.47 µM | 6.79 µM | 20.2 µM | 17.3 µM | 33 µM
C=C1C(=O)O[C@H]2[C@H]1CC/C(COC(=O)NCc1cn(C)c3ccccc13)=C\CC[C@@]1(C)O[C@@H]21 | 0.288 µM | 1.07 µM | 1.45 µM | 2.92 µM | – | – | – | – | 0.369 µM | 9.26 µM | 1.28 µM | 3.05 µM | 1.96 µM | 5.24 µM | 2.3 µM | 5.33 µM
Fc1ccc2c(c1)C1=NN(c3ccccc3)C(F)C1CO2 (centres undefined) | 10.7 µM | > 50 µM | 8.16 µM | 18.6 µM | 9.41 µM | > 50 µM | – | – | 17.6 µM | > 50 µM | 6.7 µM | 15.9 µM | 7.29 µM | 15.3 µM | – | –
COc1ccc(C2=CC(c3ccc4c(c3)OCO4)c3c(c4ccccc4oc3=O)O2)cc1OC (centres undefined) | – | > 100 µM | – | > 100 µM | – | > 100 µM | – | > 100 µM | – | – | – | 9.25 µM | – | > 100 µM | – | > 27.2 µM
COc1ccc2nc3cccc([N+](=O)[O-])c3c(NCCCCCC(=O)O)c2c1 | 0.0107 µM | 3.51 µM | 0.015 µM | 0.0466 µM | 0.0174 µM | 0.596 µM | 0.856 µM | 12 µM | 0.0109 µM | 0.0251 µM | – | – | 0.0222 µM | 2.46 µM | 1.18 µM | 2.5 µM
O=C(O)C(/C=C/c1ccccc1)c1ccccc1 (centres undefined) | – | > 100 µM | – | > 100 µM | – | > 100 µM | – | > 100 µM | – | > 100 µM | – | – | – | > 100 µM | – | –
COC(=O)C1(C)CCC(c2ccc(C)cc2)=C(CC(=O)O)C1 (centres undefined) | – | > 100 µM | – | > 100 µM | – | > 100 µM | – | > 100 µM | – | > 100 µM | – | > 100 µM | – | > 100 µM | – | –
CN(CCCn1c2c(c3ccccc3c1=O)C(=O)c1ccccc1-2)CCCn1c2c(c3ccccc3c1=O)C(=O)c1ccccc1-2 | 0.0133 µM | 0.37 µM | 2.31 µM | > 22.6 µM | – | – | 0.259 µM | 18.3 µM | 0.335 µM | – | 1.56 µM | 17.8 µM | – | – | 0.385 µM | 9.46 µM
C=C(C)C(=O)O[C@H]1CC(=C)[C@@H]2C[C@H](O)[C@](O)(CCl)[C@@H]2[C@H]2OC(=O)C(=C)[C@@H]21 | 1.67 µM | 3.19 µM | 2.78 µM | 6.88 µM | 1.6 µM | 4.04 µM | – | – | 1.8 µM | 4.59 µM | 1.99 µM | 3.77 µM | 2.47 µM | 6.14 µM | 17.6 µM | 32.4 µM
O=C1c2ccccc2C(O)(O)C1(O)C1(O)C(=O)c2ccccc2C1(O)O (centres undefined) | – | 54.1 µM | – | > 100 µM | – | 30.5 µM | – | 60.3 µM | – | – | – | 32.8 µM | – | > 100 µM | – | –
